Literature values as cited in US20150216850A1 (priority 2012, published 2015).

How the values were obtained:
[1] = test system: Huntington's disease patients
[2] = test system: Huntington's disease patients; settings: twice-daily doses of 45 mg over 12 weeks

In the case of CCCN1CCC(c2cccc(S(C)(=O)=O)c2)CC1 [pridopidine], the “symptomatic relief (hand movements, gait and balance)” value (patients with HD) is given as “significant symptomatic relief”, the “tertiary endpoint UHDRS-TMS and individual items within the mMS (gait, dysarthria)” value ([1]; 45 mg daily or 90 mg daily for 6 months) is given as “statistically significant effect” and the “primary endpoint: effect on subset of motor symptoms defined in the mMS” value ([1]; 45 mg daily or 90 mg daily, at 26 weeks) is given as “not met”. The “effect on total motor function” value [2] was “significant effect”.
